“And” between values parts separate entries of the source, which are not always exact repeats. Equal entries are not always repeated.
Columns and labels:
[1] = in vivo, iv, 0.5 mg/kg
[2] = biological target: SARS-CoV-2 Main Protease (SARS-CoV-2) (UniProt P0DTD1)

Row | SMILES | IC50 [2] | other results
1 | CS(=O)(=O)N1Cc2ccc(Cl)cc2C(C(=O)Nc2cncc3c2CCCC3)C1 (stereo not drawn) | 642 nM | AUC(0-inf) ([1]; rat): 196 ng·h/mL and 264 ng·h/mL; AUC(0-t) ([1]; rat): 195 ng·h/mL and 262 ng·h/mL; C0 ([1]; rat): 541 ng/mL and 625 ng/mL; MRT inf ([1]; rat): 35.6 min and 31 min; MRT last ([1]; rat): 29.8 min and 34 min; Vd ([1]; rat): 1.32 L/kg and 1.14 L/kg; clearance ([1]; rat): 42.5 mL/min/kg and 33 mL/min/kg; half-life ([1]; rat): 30.6 min and 25.6 min
2 | CS(=O)(=O)N1Cc2ccc(Cl)cc2C(C(=O)Nc2cncc3ccccc23)C1 (stereo not drawn) |  | AUC(0-inf) ([1]; mouse): 125 ng·h/mL and 139 ng·h/mL; AUC(0-t) ([1]; mouse): 124 ng·h/mL and 138 ng·h/mL; C0 ([1]; mouse): 399 ng/mL and 588 ng/mL; MRT inf ([1]; mouse): 21.6 min and 18.2 min; MRT last ([1]; mouse): 20.8 min and 17.6 min; Vd ([1]; mouse): 1.4 L/kg and 1.06 L/kg; clearance ([1]; mouse): 64.9 mL/min/kg and 59 mL/min/kg; half-life ([1]; mouse): 16.7 min
3 | CC1(C(=O)Nc2cncc3ccc(S(C)(=O)=O)cc23)CNC(=O)c2ccc(Cl)cc21 (stereo not drawn) | 6620 nM | AUC(0-inf) ([1]; rat): 304 ng·h/mL and 309 ng·h/mL; AUC(0-t) ([1]; rat): 292 ng·h/mL and 303 ng·h/mL; C0 ([1]; rat): 660 ng/mL and 636 ng/mL; MRT inf ([1]; rat): 38.1 min and 34.1 min; MRT last ([1]; rat): 29.1 min and 35 min; Vd ([1]; rat): 1.08 L/kg and 1.19 L/kg; clearance ([1]; rat): 31.8 mL/min/kg and 32.2 mL/min/kg; half-life ([1]; rat): 26.9 min and 30.5 min
4 | N#Cc1ncc(NC(=O)Cc2cccc(Cl)c2)c2ccccc12 | 65900 nM | AUC(0-inf) ([1]; rat): 242 ng·h/mL and 224 ng·h/mL; AUC(0-t) ([1]; rat): 241 ng·h/mL and 222 ng·h/mL; C0 ([1]; rat): 809 ng/mL and 728 ng/mL; MRT inf ([1]; rat): 28.6 min and 29.3 min; MRT last ([1]; rat): 28.2 min and 26.5 min; Vd ([1]; rat): 1.17 L/kg and 1.23 L/kg; clearance ([1]; rat): 39.9 mL/min/kg and 43.2 mL/min/kg; half-life ([1]; rat): 35.3 min and 42.1 min
5 | O=C(Cc1cc(Cl)cc(NCc2ccc3c(c2)OCO3)c1)Nc1cncc2ccccc12 | 2520 nM | 
6 | CC(=O)N(c1ccc(N)cc1)c1cc(Cl)cc(CC(=O)Nc2cncc3ccccc23)c1 | 2320 nM | 
7 | COc1cccc(CC(=O)Nc2cncc3ccccc23)c1 | 30500 nM | 
8 | CC(C)(C)c1ccc(N(C(=O)c2ccco2)C(C(=O)NCCN2CCOCC2)c2cccnc2)cc1 (stereo not drawn) | 2190 nM | 
9 | C=CC(=O)N(c1ccc(C(C)(C)C)cc1)C(C(=O)NC)c1cccnc1 (stereo not drawn) | 35700 nM | 
10 | COc1ccc(N(C(=O)c2cocn2)C(C(=O)NCCc2cccc(F)c2)c2cccnc2)cc1 (stereo not drawn) | 22200 nM | 
11 | CC(C)(C)c1ccc(N(C(=O)c2cn(CCN3CCOCC3)nn2)C(C(=O)NCCc2cccc(F)c2)c2cccnc2)cc1 (stereo not drawn) | 10500 nM | 
12 | COc1ccc([C@H](C)Nc2cc(Cl)cc(CC(=O)Nc3cncc4ccccc34)c2)cc1 (stereo in doubt) | 4730 nM | 
13 | Cc1nn2c(CNc3ccc(Cn4cncn4)cc3)c(C)nc2s1 | > 99500 nM | 
14 | CCOC(=O)CCCNC(=O)C(c1cccnc1)N(C(=O)c1cocn1)c1ccc(C(C)(C)C)cc1 (stereo not drawn) | 6240 nM | 
15 | O=C(Nc1ccccn1)[C@H]1CN(C(=O)CCl)CCN1S(=O)(=O)c1ccsc1 (stereo in doubt) | 4770 nM | 
16 | CC(C)n1nccc1C(=O)N1Cc2ccc(Cl)cc2C2(CCN(c3cncc4ccccc34)C2=O)C1 (stereo not drawn) | 268 nM | 
17 | Cc1ccc(C)c(S(=O)(=O)N2CCN(C(=O)CCl)CC2)c1 | 14200 nM | 
18 | C=CC(=O)N(c1cc(C(C)(C)C)on1)C(C(=O)Nc1cccc(CC)c1)c1cccnc1 (stereo not drawn) | > 99000 nM | 
19 | COc1cccc(CN2CCN(C(=O)c3cc(=O)[nH]c4ccccc34)CC2)c1 | 27300 nM | 
20 | Cc1ccnc(N)c1NC(=O)C1CCOc2ccc(Cl)cc21 (stereo not drawn) | 69500 nM | 
21 | C=CC(=O)N(c1ccc(C(C)(C)C)cc1)C(C(=O)NCc1ccc(F)cc1)c1cccnc1 (stereo not drawn) | 23300 nM | 
22 | O=C(CCl)N1CCN(S(=O)(=O)c2c(F)cccc2F)CC1 | 3430 nM and 3140 nM | 
23 | N#Cc1ncc(Br)cn1 | > 99500 nM | 
24 | N#CCNC(=O)CN1Cc2ccc(Cl)cc2C2(CCN(c3cncc4ccccc34)C2=O)C1 (stereo not drawn) | 263 nM | 

Row | SMILES | IC50 [2] | other results
25 | CN(C)C(=O)COCC1(C(=O)Nc2cncc3ccccc23)CCOc2ccc(Cl)cc21 (stereo not drawn) | 652 nM | 
26 | O=C(Cc1cc(Cl)cc(Nc2ccc(OC(F)(F)F)cc2Cl)c1)Nc1cncc2ccccc12 | 1900 nM | 
27 | O=C(Cc1cc(Cl)cc(NC[C@@H](c2cccnc2)N2CCOCC2)c1)Nc1cncc2ccccc12 (stereo in doubt) | 2580 nM | 
28 | Cc1nc2ccc(N(C(=O)c3cocn3)C(C(=O)NCCc3cccc(F)c3)c3cccnc3)cc2o1 (stereo not drawn) | > 99500 nM | 
29 | O=C(NNc1nc2ccccc2[nH]1)c1cc(O)nc2ccccc12 | 25800 nM | 
30 | O=C(c1cc(=O)cc[nH]1)N1CCN(c2cccc(Cl)c2)CC1 | > 99500 nM | 
31 | O=C(Nc1ccccc1)[C@@H]1CN(C(=O)CCl)CCN1S(=O)(=O)c1ccsc1 (stereo in doubt) | 716 nM | 
32 | O=C(Nc1cncc2ccccc12)C1CN(S(=O)(=O)C2CCOC2)Cc2ccc(Cl)cc21 (stereo not drawn) | 152 nM | 
33 | CC(C)NC(=O)CN1CC(C(=O)Nc2cncc3ccccc23)c2cc(Cl)ccc2C1=O (stereo not drawn) | 389 nM | 
34 | CSC1=C(C#N)C2(CCCCC2)C(C#N)=C(NC(=O)CCl)N1 | 745 nM and 1750 nM | 
35 | CCCc1cc2c(cc1S(=O)(=O)N1CCN(c3ncccn3)CC1)OCO2 | > 99500 nM | 
36 | Cc1ncc(CN2CC(C(=O)Nc3cncc4cc(S(C)(=O)=O)ccc34)c3cc(Cl)ccc3C2=O)[nH]1 (stereo not drawn) | 226 nM | 
37 | O=C(Cc1cc(Cl)cc(Nc2ccc(Oc3ccc(Cl)cc3)cc2)c1)Nc1cncc2ccccc12 | 2440 nM | 
38 | C=CC(=O)N(c1ccc(C(C)(C)C)cc1)C(C(=O)Nc1ccc(OC)cc1OC)c1cccnc1 (stereo not drawn) | 6470 nM | 
39 | CCn1nccc1C(=O)N1Cc2ccc(Cl)cc2C2(CCN(c3cncc4ccccc34)C2=O)C1 (stereo not drawn) | 297 nM | 
40 | Cc1cc(F)cc2cncc(NC(=O)Cc3cccc(Cl)c3)c12 | 851 nM | 
41 | C[C@H]1CN(c2cc(Cl)cc(CC(=O)Nc3cncc4ccccc34)c2)CCN1C(=O)OC(C)(C)C (stereo in doubt) | 2610 nM | 
42 | CNC(=O)C1(N2CC3(CCN(c4cncc5cc(S(C)(=O)=O)ccc45)C3=O)c3cc(Cl)ccc3C2=O)CC1 (stereo not drawn) | 265 nM | 
43 | O=C(Cc1cc(Cl)cc(Nc2ccc(Br)c(C(F)(F)F)c2)c1)Nc1cncc2ccccc12 | 2310 nM | 
44 | O=C1CC(C(=O)Nc2cncc3ccccc23)c2cc(Br)ccc2N1 (stereo not drawn) | 1120 nM | 
45 | COC(=O)C(C)(CN(C(=O)c1ccco1)C(C(=O)NCCc1cccc(F)c1)c1cccnc1)c1ccccc1F (stereo not drawn) | > 99500 nM | 
46 | O=C(Cc1cc(Cl)cc(Nc2ccc(OC(F)F)cc2)c1)Nc1cncc2ccccc12 | 1900 nM | 
47 | COCCCNCC1(C(=O)Nc2cncc3ccccc23)CCOc2ccc(Cl)cc21 (stereo not drawn) | 11400 nM | 

Source: the COVID Moonshot data (paper PMC7615835)
